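Where inhibition never reached the appropriate level, the endpoint shown equals the highest concentration tested. Otherwise, values were interpolated linearly from a five-concentration, 48-hour dose response in 96-well plates. GI50: concentration for 50% inhibition of growth. TGI is the concentration that stops growth completely.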
How the values were obtained:
Experiment in all cases: growth of human tumour cells (NCI), 48 h
786-0 renal = tested on: 786-0 renal
DMS 114 small cell lung = tested on: DMS 114 small cell lung
DU-145 prostate = tested on: DU-145 prostate
EKVX NSCLC = tested on: EKVX NSCLC
HCT-116 colon = tested on: HCT-116 colon
M19-MEL melanoma = tested on: M19-MEL melanoma
MDA-MB-435 = tested on: MDA-MB-435
SK-MEL-5 melanoma = tested on: SK-MEL-5 melanoma
TK-10 renal = tested on: TK-10 renal
UACC-257 melanoma = tested on: UACC-257 melanoma

Structure (SMILES)	GI50 (786-0 renal) [µM]	TGI (786-0 renal) [µM]	GI50 (DMS 114 small cell lung) [µM]	TGI (DMS 114 small cell lung) [µM]	GI50 (DU-145 prostate) [µM]	TGI (DU-145 prostate) [µM]	GI50 (EKVX NSCLC) [µM]	TGI (EKVX NSCLC) [µM]	GI50 (HCT-116 colon) [µM]	TGI (HCT-116 colon) [µM]	GI50 (M19-MEL melanoma) [µM]	TGI (M19-MEL melanoma) [µM]	GI50 (MDA-MB-435) [µM]	TGI (MDA-MB-435) [µM]	GI50 (SK-MEL-5 melanoma) [µM]	TGI (SK-MEL-5 melanoma) [µM]	GI50 (TK-10 renal) [µM]	TGI (TK-10 renal) [µM]	GI50 (UACC-257 melanoma) [µM]	TGI (UACC-257 melanoma) [µM]
C=C=[CH][Sn]([c]1ccccc1)([c]1ccccc1)[c]1ccccc1	1.51	2.92	1.52	2.94	1.14	2.42	1.7	4.78	0.866	2.27	1.62	3.06	1.3	2.68	1.56	3.09	1.65	3.1	1.63	3.05
O=C1c2ccccc2C(=O)c2sc(Nc3ccc(Cl)c(Cl)c3)nc21		3.59		3.26		33.2		29.5		7.3		2.44				5.83		21.8		8.63
NNC(=S)N/N=C/C(Cl)=C(\Cl)C(=O)O		> 100		> 100				> 100		> 100		> 100				> 100		> 100		> 100
CC12C(=O)N(CCN)C(=O)C1C1c3ccccc3C2c2ccccc21 (stereo not given)		> 100		> 100				> 100		> 100		> 100				> 100		> 100		> 100
CC(C)(C)C[P+](C)(C)c1ccccc1		> 100		> 100				> 100		> 100		> 100				> 100		> 100		> 100
N#CC12Cc3ccc4c(c3-c3cccc(c31)CCN2C(=O)c1ccccc1)OCO4 (stereo not given)		> 100		> 100				> 100		> 100		> 100				> 100		> 100		> 100
O=c1[nH]c2c(O)cccc2c2cc3c(c(O)c12)OCO3		> 100		75.8				77.4		54.1		93.5				> 100		> 100		47.6
CCOC(=O)C1CC/C(=C(/C#N)C(=O)OC)N1 (stereo not given)		> 100		> 100				> 100		> 100		> 100				> 100		> 100		> 100
CCOC(=O)N1CCC(=O)C[C@@H]1C/C=C/P1(=O)O[C@H](c2ccccc2)C(C)N1C(C)C (stereo not given in full)		> 100		> 100				> 100		> 100		> 100				> 100		> 100		> 100

From PubChem BioAssay (NCI)
